Measured values as given in patent publication US8765765B2, “Metabolites of (thio) carbamoyl-cyclohexane derivatives” (Richter Gedeon Nyrt., priority 2007, dated 2014).
pKi: −log10 of the molar value.

How the values were obtained:
[1] = biological target: T1, rat recombinant D3 receptors (expressed in Sf9 cells) (Rattus norvegicus, UniProt P19020); test: D3 receptor binding, [3H]-spiperone; settings: rat recombinant D3, [3H]-spiperone 0.85 nM; read-out: rD3 Ki
T1 construct: purchased Packard BioScience, BioSignal Packard Inc. 6110139; host or cells: Sf9 cells
Description: Binding assays were carried out on rat recombinant D3 receptors (expressed in Sf9 cells) according to the supplier instructions (Packard BioScience, BioSignal Packard Inc. Cat. No. 6110139, Technical Data Sheet) using [^3H]-spiperone (0.85 nM) as ligand and haloperidol (10 μM) for determination of non-specific binding.

[2] = biological target: T2, D2 receptor (rat brain striatal membrane preparation) (Rattus norvegicus, UniProt P61169); test: D2 receptor binding, [3H]-spiperone; settings: rat brain striatal membranes, [3H]-spiperone 0.6 nM; read-out: rD2 Ki
T2 construct: on rat brain striatal membrane preparation; from tissue; host or cells: rat brain striatum membranes
Description: D2 receptor binding assay was carried out as described by Creese et al., European Journal of Pharmacology, 60, 55-66, 1979) on rat brain striatal membrane preparation using [^3H]-spiperone (0.6 nM) as ligand. The non-specific binding was determined in the presence of 1 μM (+)-butaclamol.

[3] = biological target: Alpha-1 receptor (rat brain cortical membrane preparation); test: Alpha-1 receptor binding, [3H]-prasosin; settings: rat brain cortical membranes, [3H]-prasosin 0.5 nM
Description: 3. Alpha-1 Receptor Binding
Alpha-1 receptor binding study was performed according to the method described by Greengrass and Bremmer (European Journal of Pharmacology 55:323-326, 1979) on rat brain cortical membrane preparation using [^3H]-prasosin (0.5 nM) as ligand. The non-specific binding was determined in the presence of 10 μM phentolamine.

dopamine D3/D2 receptor = settings: background statement; cited from earlier work
5-HT2C = 5-HT2C (Homo sapiens, UniProt P28335); settings: background statement; cited from earlier work
histamine H1 = histamine H1 (Homo sapiens, UniProt P35367); settings: background statement; cited from earlier work
[4] = tested on: adrenergic receptor sites; settings: background statement; cited from earlier work

T1 sequence (P19020 whole entry): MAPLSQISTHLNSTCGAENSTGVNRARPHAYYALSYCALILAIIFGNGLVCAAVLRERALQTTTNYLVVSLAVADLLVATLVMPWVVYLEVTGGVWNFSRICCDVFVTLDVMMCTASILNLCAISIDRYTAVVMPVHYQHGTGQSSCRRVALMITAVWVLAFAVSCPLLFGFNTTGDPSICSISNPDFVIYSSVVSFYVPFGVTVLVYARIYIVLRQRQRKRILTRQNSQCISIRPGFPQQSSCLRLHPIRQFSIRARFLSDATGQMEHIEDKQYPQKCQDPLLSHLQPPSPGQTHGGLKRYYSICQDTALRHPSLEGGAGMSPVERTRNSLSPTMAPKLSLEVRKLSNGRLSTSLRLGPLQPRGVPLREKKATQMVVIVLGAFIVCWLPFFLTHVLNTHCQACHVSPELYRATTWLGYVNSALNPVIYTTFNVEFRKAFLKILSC
T2 sequence (P61169 whole entry): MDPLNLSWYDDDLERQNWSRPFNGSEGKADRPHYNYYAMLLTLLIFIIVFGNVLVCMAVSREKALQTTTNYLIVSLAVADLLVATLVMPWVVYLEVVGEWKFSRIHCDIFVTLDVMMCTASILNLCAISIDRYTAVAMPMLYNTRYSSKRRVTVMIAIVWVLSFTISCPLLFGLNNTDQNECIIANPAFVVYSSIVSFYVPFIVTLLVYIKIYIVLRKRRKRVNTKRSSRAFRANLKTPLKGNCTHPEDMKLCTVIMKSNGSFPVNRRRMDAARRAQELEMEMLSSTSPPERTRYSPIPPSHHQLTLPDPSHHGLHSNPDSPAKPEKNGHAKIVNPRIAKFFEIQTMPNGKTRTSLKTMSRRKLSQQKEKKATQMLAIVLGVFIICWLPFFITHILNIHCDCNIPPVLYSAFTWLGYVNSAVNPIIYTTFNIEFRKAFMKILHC
Chain of histamine H1 (P35367 whole entry): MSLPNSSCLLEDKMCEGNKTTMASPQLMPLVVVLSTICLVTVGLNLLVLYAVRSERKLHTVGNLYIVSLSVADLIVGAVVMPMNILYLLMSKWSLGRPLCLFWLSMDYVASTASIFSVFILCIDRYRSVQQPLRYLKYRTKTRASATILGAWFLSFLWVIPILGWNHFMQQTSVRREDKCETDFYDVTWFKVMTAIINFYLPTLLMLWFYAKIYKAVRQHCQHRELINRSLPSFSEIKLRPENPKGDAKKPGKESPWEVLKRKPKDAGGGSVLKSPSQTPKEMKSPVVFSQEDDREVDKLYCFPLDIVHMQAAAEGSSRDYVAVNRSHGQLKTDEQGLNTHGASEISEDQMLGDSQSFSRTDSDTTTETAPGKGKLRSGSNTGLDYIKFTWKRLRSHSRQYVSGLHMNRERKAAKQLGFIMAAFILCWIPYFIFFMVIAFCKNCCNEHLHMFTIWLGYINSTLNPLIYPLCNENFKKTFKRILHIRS
Chain of 5-HT2C (P28335 33-458, species assumed): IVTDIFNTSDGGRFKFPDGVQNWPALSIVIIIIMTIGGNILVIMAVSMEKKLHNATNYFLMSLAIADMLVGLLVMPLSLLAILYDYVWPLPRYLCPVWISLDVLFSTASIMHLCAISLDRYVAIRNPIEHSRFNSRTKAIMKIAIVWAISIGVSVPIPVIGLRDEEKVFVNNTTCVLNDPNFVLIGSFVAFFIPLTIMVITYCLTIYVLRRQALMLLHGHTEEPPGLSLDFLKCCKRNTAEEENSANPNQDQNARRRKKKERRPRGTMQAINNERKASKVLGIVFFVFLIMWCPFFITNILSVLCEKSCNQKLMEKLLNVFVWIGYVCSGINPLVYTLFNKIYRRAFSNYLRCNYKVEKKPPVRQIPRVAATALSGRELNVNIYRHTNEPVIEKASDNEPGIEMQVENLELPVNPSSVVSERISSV

Structure (SMILES) | pKi [1] | pKi [2] | pKi [3] | D3 receptor antagonism relative to D2 receptor antagonism (dopamine D3/D2 receptor) | potency at 5-HT2C receptor site (5-HT2C) | potency at histamine H1 receptor site (histamine H1) | potency at adrenergic receptor sites [4]
CNC(=O)N[C@H]1CC[C@H](CCN2CCN(c3ccc(O)c(Cl)c3Cl)CC2)CC1 [Compound B, Trans-1-{4-[2-[4-(2,3-dichloro-4-hydroxy-phenyl)-piperazin-1-yl]-ethyl]-cyclohexyl}-3-methyl-urea] | 9.62 | 8.60 | < 6.00 | – | – | – | –
CN(C)C(=O)N[C@H]1CC[C@H](CC[N+]2([O-])CCN(c3cccc(Cl)c3Cl)CC2)CC1 [Compound D, Trans-1-{4-[2-[4-(2,3-dichlorophenyl)-1-oxo-piperazin-1-yl]-ethyl]-cyclohexyl}-3,3-dimethyl-urea] | < 8.00 | < 7.00 | < 6.00 | – | – | – | –
CN(C)C(=O)NC1CCC(CCN2CCN(c3cccc(Cl)c3Cl)CC2)CC1.Cl (stereo not drawn) [trans-4-{2-[4-(2,3-dichlorophenyl)-piperazin-1-yl]-ethyl}-N,N-dimethylcarbamoyl-cyclohexylamine hydrochloride] | – | – | – | about one order of magnitude greater | low potency | low potency | low potency

Continued, in another order:

pKi [1] | pKi [2] | pKi [3] | Structure (SMILES) | D3 receptor antagonism relative to D2 receptor antagonism (dopamine D3/D2 receptor) | potency at 5-HT2C receptor site (5-HT2C) | potency at histamine H1 receptor site (histamine H1) | potency at adrenergic receptor sites [4]
9.59 | 8.08 | < 6.00 | NC(=O)N[C@H]1CC[C@H](CCN2CCN(c3ccc(O)c(Cl)c3Cl)CC2)CC1 [Compound A, Trans-1-{4-[2-[4-(2,3-dichloro-4-hydroxy-phenyl)-piperazin-1-yl]-ethyl]-cyclohexyl}-urea] | – | – | – | –
9.43 | 7.09 | < 6.00 | CN(C)C(=O)N[C@H]1CC[C@H](CCN2CCN(c3ccc(O)c(Cl)c3Cl)CC2)CC1 [Compound C, Trans-1-{4-[2-[4-(2,3-dichloro-4-hydroxy-phenyl)-piperazin-1-yl]-ethyl]-cyclohexyl}-3,3-dimethyl-urea] | – | – | – | –
